Experimental data: the supplement of paper PMC10307832

What was measured:
Test in all cases: relative viability (nuclei count vs DMSO), 5 days (fraction); higher = more cells survive
Zebularine + Palbociclib = compound: O=c1ncccn1[C@@H]1O[C@H](CO)[C@@H](O)[C@H]1O [Zebularine] + CC(=O)c1c(C)c2cnc(Nc3ccc(N4CCNCC4)cn3)nc2n(C2CCCC2)c1=O [Palbociclib] (partner 0.5 µM)
Procedure, shortened: (§1)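 For relative viability, nuclei counts in treated wells were divided by those in vehicle wells. Lung cancer cell lines had been pin-tool dosed in 1536-well plates the day after seeding and cultured for 5 days, then fixed and stained in one step (final 0.05% Triton X-100, 1% formaldehyde, 1 ug/ml Hoechst) and imaged at 4×. Doses were one drug alone or a fixed anchor-drug dose plus five library-drug doses (not always all listed) in √10 steps, and values are duplicate-plate medians.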

BI-D1870 + Lapatinib = compound: CC(C)CCN1c2nc(Nc3cc(F)c(O)c(F)c3)ncc2N(C)C(=O)C1C [BI-D1870] + CS(=O)(=O)CCNCc1ccc(-c2ccc3ncnc(Nc4ccc(OCc5cccc(F)c5)c(Cl)c4)c3c2)o1 [Lapatinib] (partner 2 µM)
Procedure, shortened: as §1

Zebularine + Luminespib = compound: O=c1ncccn1[C@@H]1O[C@H](CO)[C@@H](O)[C@H]1O [Zebularine] + CCNC(=O)c1noc(-c2cc(C(C)C)c(O)cc2O)c1-c1ccc(CN2CCOCC2)cc1 [Luminespib] (partner 0.01 µM)
Procedure, shortened: as §1

Zebularine + Phenformin = compound: O=c1ncccn1[C@@H]1O[C@H](CO)[C@@H](O)[C@H]1O [Zebularine] + N=C(N)NC(=N)NCCc1ccccc1 [Phenformin] (partner 250 µM)
Procedure, shortened: as §1

Cell Line	relative viability (Zebularine + Palbociclib; first compound 1 µM)	relative viability (Zebularine + Palbociclib; first compound 3.162 µM)	relative viability (Zebularine + Palbociclib; first compound 10 µM)	relative viability (Zebularine + Palbociclib; first compound 31.62 µM)	relative viability (Zebularine + Palbociclib; first compound 100 µM)	relative viability (BI-D1870 + Lapatinib; first compound 0.04 µM)	relative viability (BI-D1870 + Lapatinib; first compound 0.1265 µM)	relative viability (BI-D1870 + Lapatinib; first compound 0.4 µM)	relative viability (BI-D1870 + Lapatinib; first compound 1.265 µM)	relative viability (BI-D1870 + Lapatinib; first compound 4 µM)	relative viability (Zebularine + Luminespib; first compound 1 µM)	relative viability (Zebularine + Luminespib; first compound 3.162 µM)	relative viability (Zebularine + Luminespib; first compound 10 µM)	relative viability (Zebularine + Luminespib; first compound 31.62 µM)	relative viability (Zebularine + Luminespib; first compound 100 µM)	relative viability (Zebularine + Phenformin; first compound 1 µM)	relative viability (Zebularine + Phenformin; first compound 3.162 µM)	relative viability (Zebularine + Phenformin; first compound 10 µM)	relative viability (Zebularine + Phenformin; first compound 31.62 µM)	relative viability (Zebularine + Phenformin; first compound 100 µM)
NCI-H1648	0.316	0.226	0.301	0.25	0.24															
SK-MES-1	0.346	0.359	0.341	0.328	0.272	0.468	0.443	0.417	0.509	0.356	0.656	0.755	0.458	0.347	0.251	0.755	0.693	0.45	0.362	0.226
HCC-366	0.367	0.387	0.246	0.23	0.108	1.09	1.01	1	1.21	0.389						0.709	0.613	0.495	0.503	0.0892
201T	0.406	0.355	0.325	0.411	0.39	1.01	0.97	1.05	1.02	1.03	1.09	1.1	0.894	1.04	0.724	0.527	0.485	0.327	0.492	0.368
HCC-827	0.555	0.551	0.424	0.485	0.339	0.224	0.179	0.194	0.172	0.231	0.756	0.909	0.353	0.582	0.257	0.486	0.396	0.45	0.379	0.278
NCI-H647	0.334	0.34	0.149	0.0894	0.104	1.26	0.927	1.02	1.03	0.671	0.242	0.173	0.141	0.0957	0.0958	0.539	0.48	0.178	0.22	0.12
NCI-H2023	0.361	0.375	0.235	0.322	0.245	0.903	0.745	0.886	0.764	0.59	0.942	1.04	0.301	0.448	0.174	0.475	0.443	0.213	0.23	0.208
NCI-H520	0.213	0.217	0.202	0.201	0.175	1	0.714	0.846	0.619	0.704	0.262	0.261	0.186	0.246	0.192	0.76	0.6	0.313	0.332	0.206
RERF-LC-KJ	1.09	1.01	0.871	1.3	1.24	0.886	0.783	0.8	0.821	0.863	1.29	1.17	0.827	1.54	1.53	0.403	0.431	0.35	0.41	0.406
A-427	0.581	0.542	0.472	0.385	0.296	1.05	0.981	0.957	1.21	1.09	1.01	0.856	0.53	0.383	0.261	0.361	0.302	0.262	0.279	0.213
NCI-H441	0.235	0.21	0.207	0.148	0.181						0.301	0.266	0.298	0.244	0.225	0.803	0.73	0.366	0.309	0.396
NCI-H1703						1.07	0.732	1.29	1.11	0.796										
NCI-H1792	0.639	0.732	0.282	0.401	0.423	0.926	0.953	0.881	0.967	0.794	0.667	0.4	0.286	0.266	0.254	0.44	0.281	0.119	0.258	0.189
Calu-6						1.07	0.977	1.09	0.931	0.868										
SK-LU-1	0.417	0.408	0.347	0.38	0.356	0.922	0.894	0.791	0.793	0.462	0.231	0.187	0.22	0.229	0.183	0.633	0.552	0.313	0.493	0.33
PC-3 [JPC-3]	0.537	0.535	0.507	0.605	0.514	0.455	0.425	0.463	0.52	0.385	0.79	0.667	0.553	0.466	0.493	0.461	0.486	0.437	0.46	0.396
EMC-BAC-2	0.545	0.507	0.431	0.6	0.539	0.823	0.887	0.815	0.951	0.899	1.27	1.1	0.842	1.38	1.35	0.656	0.569	0.334	0.662	0.516
LK-2	0.874	0.797	0.424	0.28	0.204	1.01	0.888	0.985	1.04	0.977	0.17	0.176	0.213	0.182	0.176	0.759	0.355	0.289	0.372	0.259
NCI-H2126	0.363	0.342	0.386	0.377	0.318	0.814	0.741	0.768	0.85	0.693	1.01	0.85	0.889	0.795	0.379	0.579	0.473	0.445	0.494	0.435
NCI-H3122	0.204	0.185	0.173	0.195	0.19	1.02	0.985	0.983	1.01	0.967	0.11	0.0829		0.111	0.0803	0.434	0.389	0.332	0.385	0.352

Cell Line	relative viability (Zebularine + Palbociclib; first compound 1 µM)	relative viability (Zebularine + Palbociclib; first compound 3.162 µM)	relative viability (Zebularine + Palbociclib; first compound 10 µM)	relative viability (Zebularine + Palbociclib; first compound 31.62 µM)	relative viability (Zebularine + Palbociclib; first compound 100 µM)	relative viability (BI-D1870 + Lapatinib; first compound 0.04 µM)	relative viability (BI-D1870 + Lapatinib; first compound 0.1265 µM)	relative viability (BI-D1870 + Lapatinib; first compound 0.4 µM)	relative viability (BI-D1870 + Lapatinib; first compound 1.265 µM)	relative viability (BI-D1870 + Lapatinib; first compound 4 µM)	relative viability (Zebularine + Luminespib; first compound 1 µM)	relative viability (Zebularine + Luminespib; first compound 3.162 µM)	relative viability (Zebularine + Luminespib; first compound 10 µM)	relative viability (Zebularine + Luminespib; first compound 31.62 µM)	relative viability (Zebularine + Luminespib; first compound 100 µM)	relative viability (Zebularine + Phenformin; first compound 1 µM)	relative viability (Zebularine + Phenformin; first compound 3.162 µM)	relative viability (Zebularine + Phenformin; first compound 10 µM)	relative viability (Zebularine + Phenformin; first compound 31.62 µM)	relative viability (Zebularine + Phenformin; first compound 100 µM)
NCI-H1975	0.818	0.596	0.291	0.317	0.259	1.1	0.865	0.858	0.863	0.464	0.249	0.196	0.241	0.199	0.14	0.416	0.417	0.229	0.221	0.148
NCI-H1944	0.309	0.353	0.339	0.36	0.329	0.932	0.669	0.659	0.835	0.768	0.837	0.707	0.718	0.711	0.533	0.226	0.188	0.174	0.19	0.146
LU99A	0.483	0.433	0.331	0.278	0.187	1.11	0.942	0.928	0.941	0.939	0.221	0.269	0.166	0.188	0.146	0.856	0.831	0.551	0.558	0.208
SW 1573	0.451	0.435		0.391	0.38	1.13	1.16	1.11	1.25	1.14	0.181	0.34	0.173	0.41	0.285	0.379	0.404		0.406	0.227
NCI-H2347	0.471	0.411	0.414	0.471	0.338	1.12	0.977	0.745	0.921	1.03	0.504	0.418	0.293	0.213	0.28	0.583	0.38	0.297	0.233	0.293
NCI-H2009	0.249	0.229	0.234	0.198	0.197	1.01	0.955	0.885	0.741	0.478	1.09	1.04	0.793	0.859	0.3	0.515	0.483	0.425	0.435	0.336
HCC-15	0.887	0.757	0.521	0.506	0.3	0.94	0.832	0.774	0.795	0.592	0.297	0.337	0.211	0.34	0.216	0.532	0.496	0.247	0.417	0.308
HCC-78	0.577	0.465	0.34	0.472	0.449	0.827	0.597	0.715	1.13	0.856						0.678	0.728	0.496	0.74	0.387
NCI-H1299						0.903	0.957	0.95	0.915	0.743										
LCLC-103H	0.49	0.45	0.482	0.505	0.473						1.07	0.996	0.696	0.705	0.475	0.365	0.337	0.261	0.391	0.303
ChaGo-K-1	0.919	0.737	0.345	0.198	0.217						0.657	0.508	0.212	0.221	0.217	0.51	0.458	0.278	0.25	0.204
SW 900	0.503	0.484		0.669	0.527						0.187	0.21	0.218	0.162	0.137	0.809	0.559	0.349	0.65	0.407
NCI-H596						1.05	1.03	1.19	1.09	1.05	0.897	0.914	0.662	1.13	0.715	0.844	0.817	0.579	0.776	0.807
NCI-H1563						1.08	0.898	0.817	0.9	0.917	0.519	0.517	0.518	0.521	0.514	0.684	0.674	0.647	0.702	0.661
A549						1.16	0.875	1.06	0.908	0.992						0.209	0.171	0.169	0.131	0.122
NCI-H2342	0.508	0.498	0.5	0.526	0.47						0.835	0.783	0.621	0.669	0.576	0.635	0.528	0.49	0.73	0.59
NCI-H1623											0.629	0.503	0.592	0.468	0.293	0.624	0.531	0.479	0.535	0.437
NCI-H522	0.923	0.942	0.926	0.827	0.765						0.928	0.881	0.99	0.776	0.665	0.589	0.631	0.622	0.656	0.65
IA-LM						0.972	0.906	0.862	0.614	0.213										
EBC-1						0.195	0.19	0.205	0.188	0.158										
